Our source for the EC50, IC50 and GI50 values is US9187458B2, “Cyanoquinoline derivatives” (Tianjin Hemay Bio-Tech Co., LTD., priority 2010, dated 2015).

SMILES strings stand for the structures.

In test [1] the target is T1, Her2 kinase (Homo sapiens, UniProt P04626).
T1 construct: purchased Cell Signaling Tech #7382
In words: Inhibition Activity Assay on Her2 Enzyme (ELISA, PGT substrate). The test is classed as biochemical. Conditions: 8 min at 4° C., read-out: Inhibition Activity (EC50) on Her-2. How it is done:
Inhibition Activity Assay on Her2 Enzyme
1. Her2 kinase, Cell Signaling Tech, #7382, Lot. 2, reserved at −80° C.;
2. PBST: PBS+0.05% (v/v) Tween 20;
3. Confining liquid: 3% of BSA in PBS;
4. HEPEs buffer (2×): 50 mM HEPEs, 20 mM MgCl2, 0.1 mM MnCl2, 0.2 mM Na3VO4, adjusted to pH of 7.4 with NaOH;
5. PGT, Sigma, Cat#P0275): 2 mg/ml of stock solution was prepared by dissolving PBS, reserved at −20° C.
6. ATP: […] of stock solution was prepared by dissolving ddH2O, reserved at −20° C.;
7. Mice anti-phosphorylation tyrosine-HRP: Invitrogen-037720, 0.5 mg/ml, reserved at 4° C.;
8. TMB: Cell Signaling Tech, Cat #7004L;
9. DTT: 2.5 M of stock solution was prepared with ddH2O, reserved at −20° C. Before use, 2×HEPEs buffer was added in the solution to the final concentration of 1.25 mM.
1. 2 mg/ml of PGT was diluted with PBS to 0.2 mg/ml. 60 μl of the resulting solution was added in each well. The elisa plate was placed in a refrigerator at 4° C. and coated overnight;
2. The coating solution was discarded to stop the coating. The plate was washed four times with PBS, and then beaten to dryness;
3. The elisa plate was placed in a refrigerator at 4° C., drained out and stood for 3h.
4. […] of aqueous solution of each compound was diluted with ddH2O to a desirable concentration. Then, the solution was added in the corresponding elisa well by 25 μl/well;
5. 2 nM of ATP solution was diluted with ddH2O to 25 folds and then sufficiently mixed. The resulting solution was separately added in each elisa well by 25 μl per well (25 μl ddH2O was added in the negative control);
6. Her2 kinase was diluted with 2×TKB to 800 folds. The resulting solution was added in the elisa well by 50 μl per well. Then, the enzyme reaction began. Moreover, the elisa plate was immediately placed in a micro-oscillator. The reaction is carried out for 8 min at the temperature of 4° C.;
7. 2% of SDS was added in the elisa well to stop the reaction by adding 100 μl of SDS in each well. The solution was sufficiently mixed on the micro-oscillator to sufficiently mix for about 5 min;
8. The reaction solution was sucked out. The plate was washed four times with PBST. After the plate was beaten to dryness, 0.25 μg/ml of mice anti-phosphorylation tyrosine-HRP which was diluted with confining liquid was added in the plate by 100 μl per well, and then reacted for 30 min at the room temperature.
9. The antibody reaction solution was sucked out. The plate was washed six times with PBST. After the plate was beaten to dryness, TMB peroxidase substrate was added in the plate with 100 μl/well, and then reacted in the dark for 15 min at the room temperature;
10. 100 μl of 2N H2SO4 was added in the solution to stop the chromogenic reaction. After the bubbles were cleansed, the solution was measured in elisa at 450 nm.
OD values were converted in relative inhibition ratios according to following formula: Relative inhibition ratio=[1−(experiment values−NC mean values)/(PC mean values−NC mean values)]×100%

For test [2], the system named is A549 cells. Briefly: A549 Cell Growth Inhibition Test (MTT Assay). The test is classed as cell-based. To be noted: Homo sapiens, 72 h incubation. As to the method:
A549 Cell Growth Inhibition Test (MTT Assay)
1. Cell strains: […] (human lung caner cell strains);
Culture medium: 90% F12K+10% FBS;
(§1) 1. A plate (10 cm) of cells in logarithmic growth phase normally cultured was collected;
2. The culture solution was sucked out. Tthe plate was washed with 5 ml of PBS 1-2 times;
(§2) 3. PBS was sucked out. 2 ml of 0.25% pancreatin was added to infiltrate the cells for 1 min;
(§3) 4. The pancreatin was sucked out. The culture plate was placed in an incubator. Digestion was carried out for about 2 min at 37° C.;
(§4) 5. 4 ml of complete culture solution was added to the culture plate to stop the digestion. The cells were carefully scoured with micropipette (1 ml) to give a uniform cell suspension. The suspension was implanted into a 96-well cell culture plate by 2500 cells/100 μl per well. The culture plate was incubated overnight under 5% CO2 at 37° C. In day 2, 100 μl of culture solution comprising a compound was added in each well, and further incubated for 72 h under 5% CO2 at 37° C.
(§5) 6. The culture solution was sucked out;
(§6) 7. 100 μl of serum-free culture solution containing 0.5 mg/ml MTT was added in each well, and incubated for 3 h;
(§7) 8. The culture solution was carefully sucked out;
(§8) 9. 100 μl of DMSO was added in each well and vibrated to dissolve;
(§9) 10. OD values were determined at 490 nM.
(§10) 1. Calculation of Relative Inhibition Ratio The inhibition ratio of a compound on cell growth=(PC−n)/(PC−NC)×100%
(§11) IC50: Concentration of a compound where inhibition ratio was 50%. IC50 values were fitted with Origin7.5.

The test system of test [3] is Sk-Br-3 cells. In words: Sk-Br-3 Cell Growth Inhibition Test (SRB Assay). The test is classed as cell-based. Conditions: Homo sapiens, 91 h incubation. How it is done: Sk-Br-3 Cell Growth Inhibition Test (SRB Assay)
1. Cell strains: Sk-Br-3 (human breast cancer cell strains);
2. SRB: available from Sigmaaldrich, goods number: S9012, lot number: 047K3751. SRB was reserved at the room temperature. 0.4% (w/v) of working solution was formulated with 1% of glacial acetic acid. The solution was reserved at 4° C.; anti-tumor compounds; DMSO
Culture medium: 90% DMEM+10% FBS;
1. A plate (10 cm) of cells in logarithmic growth phase normally cultured was collected. The culture solution was sucked out. The plate was washed with 5 mL of PBS 1-2 times;
2. PBS was sucked out. […] of 0.25% pancreatin was added to infiltrate the cells for 30 s;
3. The pancreatin was sucked out. The culture plate was placed in an incubator. Digestion was carried out for about 1.5-2 min at 37° C.;
4. 4 mL of complete culture solution was added to the culture plate to stop the digestion. The cells were carefully scoured with micropipette (1 ml) to give a uniform single cell suspension;
5. Cell suspension was counted. The suspension was diluted to 1×10^5/ml. The resulting suspension was developed uniformly on a plate by 10000 cells/100 μl per well. The culture plate was incubated overnight under 5% CO2 at 37° C. In day 2, 100 μl of culture solution comprising a compound was added in each well, and further incubated for 91 h under 5% CO2 at 37° C.
6. The culture solution was sucked out. 100 uL of TCA fixed cells which were diluted to 10% were added to each well. The plate was kept in a refrigerator for 1 h at 4° C.
7. TCA stationary liquid was sucked out. Each well was washed with 150 μL of ddH2O five times;
8. After the stationary liquid was cleansed, the plate was dried in the air at the room temperature;
9. 60 μL of SRB staining solution was added in each well. The well was stained for 15 min at the room temperature;
10. The SRB staining solution was sucked out. Each well was washed with 150 μL of 1% glacial acetic acid five times;
11. After the SRB staining solution was cleansed, the plate was dried in the air at the room temperature;
12. 100 μL of 10 mM Tris was added in each well. The plate was vibrated to dissolve out SRB;
13. OD values were determined at 570 nM.
To: OD values of the starting content of cells when the cells were developed on a plate;
PC: OD values of cells after normal growth in control wells without a compound;
Ti: OD values of cells after growth in test wells with a compound;
NC: Background OD values of blank well without a compound and cells
Therefore: Ratio of cells in test wells to normal wells (% of control cell growth)=(Ti−To)/(PC−To)×100%
Ratio GI50 was concentration of a compound at the point of 50%.
Therefore: Ratio of killed cells to inoculated cells (% of killed cells)=(Ti−To)/(To−NC)×100%
LC50 was concentration point of a compound when half of the starting inoculated concentration was reached.
Concentration of a compound at this point is defined as TGI (total growth inhibition).

The test system of test [4] is NCI-H460 cells. Briefly: NCI-H460 Cell Growth Inhibition Test (MTT Assay). The test is classed as cell-based. Conditions: Homo sapiens, 72 h incubation. As to the method:
NCI-H460 Cell Growth Inhibition Test (MTT Assay)
1. Cell strains: NCI-H460 (human large cell lung cancer cell strains);
as §1
(§12) 2. The culture solution was sucked out. The plate was washed with 5 ml of PBS 1-2 times;
as §2, §3, §4, §5, §6, §7, §8, §9, §10, §11

For test [5], the system named is LoVo cells. Briefly: LoVo Cell Growth Inhibition Test (MTT Assay). The test is classed as cell-based. Conditions: Homo sapiens, 72 h incubation. As to the method:
LoVo Cell Growth Inhibition Test (MTT Assay)
1. Cell strains: LoVo (human intestinal cancer cell strains);
as §1, §12, §2
4. The pancreatin was sucked out. The culture plate was placed in an incubator. Digestion was carried out for about 4 min at 37° C.;
5. 4 ml of complete culture solution was added in the culture plate to stop the digestion. The cells were carefully scoured with micropipette (1 ml) to give a uniform cell suspension. The suspension was implanted into a 96-well cell culture plate by 3000-4000 cells/100 μl per well. The culture plate was incubated overnight under 5% CO2 at 37° C. In day 2, 100 μl of culture solution comprising a compound was added into each well, and further incubated for 72 h under 5% CO2 at 37° C.
as §5
7. 100 μl of serum-free culture solution containing 0.5 mg/ml MTT was added in each well, and incubated for 4 h;
as §7, §8, §9, §10, §11

In test [6] the test system is AsPC-1 cells. Briefly: AsPC-1 Cell Growth Inhibition Test (MTT Assay). The test is classed as cell-based. Conditions: Homo sapiens, ASPC1, 72 h incubation. How it is done: AsPC-1 Cell Growth Inhibition Test (MTT Assay)
Cell strains: AsPC-1 (human pancreatic cancer cell strains);
as §1, §12
3. PBS was sucked out. 1.5 ml of 0.25% pancreatin was added to infiltrate the cells for 1 min;
4. The pancreatin was sucked out. The culture plate was placed in an incubator. Digestion was carried out for about 7.5 min at 37° C.;
5. 4.5 ml of complete culture solution was added to the culture plate to stop the digestion. The cells were carefully scoured with micropipette (1 ml) to give a uniform cell suspension. The suspension was implanted into a 96-well cell culture plate by 8000 cells/100 μl per well. The culture plate was incubated overnight under 5% CO2 at 37° C. In day 2, 100 μl of culture solution comprising a compound was added in each well, and further incubated for 72 h under 5% CO2 at 37° C.
as §5, §6, §7
9. 100 μl of DMSO was added in each welland vibrated to dissolve;
as §9, §10, §11

T1 sequence (P04626 676-1255 limits assumed): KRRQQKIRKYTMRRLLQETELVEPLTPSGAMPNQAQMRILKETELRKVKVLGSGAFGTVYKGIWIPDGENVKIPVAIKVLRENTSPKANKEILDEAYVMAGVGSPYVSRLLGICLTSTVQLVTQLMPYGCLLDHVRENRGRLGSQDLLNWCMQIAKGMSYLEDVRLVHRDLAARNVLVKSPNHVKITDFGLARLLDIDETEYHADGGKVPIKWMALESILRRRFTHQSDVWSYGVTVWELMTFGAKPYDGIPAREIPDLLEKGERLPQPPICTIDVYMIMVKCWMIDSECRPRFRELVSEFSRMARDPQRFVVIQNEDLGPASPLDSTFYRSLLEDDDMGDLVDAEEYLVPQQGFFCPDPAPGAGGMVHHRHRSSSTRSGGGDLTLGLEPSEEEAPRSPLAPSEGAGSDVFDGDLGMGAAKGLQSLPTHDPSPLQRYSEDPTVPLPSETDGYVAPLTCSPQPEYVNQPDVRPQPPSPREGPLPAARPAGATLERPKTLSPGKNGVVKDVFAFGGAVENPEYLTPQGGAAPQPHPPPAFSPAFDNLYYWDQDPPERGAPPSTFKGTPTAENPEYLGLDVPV

As a reminder, the EC50 is the concentration giving half of the maximal effect. For `N#Cc1cnc2cc(OC3CCOC3)c(NC(=O)C=C3CCNCC3)cc2c1Nc1ccc(F)c(Cl)c1` (stereo not drawn) [Example 42, N-(4-(3-CHLORO-4-FLUOROPHENYLAMINO)-3-CYANO-7-(TETRAHYDROFURAN-3-YL-OXY)QUINOLIN-6-YL)-2-(PIPERIDIN-4-YLIDENE)ACETAMIDE], the EC50 in test [1] was determined as 0.291 µM.

In general, IC50 refers to the concentration that gives 50% inhibition. Usually GI50 stands for the concentration giving 50% growth inhibition. A high value points to less potent growth inhibition. For `CN(C)C/C=C/C(=O)Nc1cc2c(Nc3ccc(OCc4ccc(C(C)(C)C)cc4)c(Cl)c3)c(C#N)cnc2cc1OC1CCOC1` (stereo not drawn) [Example 14, (E)-N-(4-(4-(4-TERT-BUTYLBENZYLOXY)-3-CHLOROPHENYLAMINO)-3-CYANO-7-(TETRAHYDROFURAN-3-YL-OXY)QUINOLIN-6-YL)-4-(DIMETHYLAMINO)-BUT-2-ENAMIDE], the IC50 in test [2] amounted to 1.5 µM; in test [4], 0.94 µM; in test [5], 1.3 µM; in test [6] it was 1.4 µM. Besides, in test [3], halving of growth (GI50) required 0.924 µM.
